Reference: ChEMBL document CHEMBL5143518, “Pyridazino-pyrrolo-quinoxalinium salts as highly potent and selective leishmanicidal agents targeting trypanothione reductase” (Eur J Med Chem, 2022)
Active and inactive are the calls of the source. No cut-off for these calls is given here.

Key:
[1] = biological target: T1, Trypanothione reductase (Leishmania infantum, UniProt A4HSF7); experiment: Inhibition of recombinant His-tagged Leishmania infantum TryR oxidoreductase activity expressed in Escherichia coli BL21 (DE3) using TS2 and NADPH as substrate by DTNB-reagent based spectrophotometric method
T1 sequence (A4HSF7 whole entry): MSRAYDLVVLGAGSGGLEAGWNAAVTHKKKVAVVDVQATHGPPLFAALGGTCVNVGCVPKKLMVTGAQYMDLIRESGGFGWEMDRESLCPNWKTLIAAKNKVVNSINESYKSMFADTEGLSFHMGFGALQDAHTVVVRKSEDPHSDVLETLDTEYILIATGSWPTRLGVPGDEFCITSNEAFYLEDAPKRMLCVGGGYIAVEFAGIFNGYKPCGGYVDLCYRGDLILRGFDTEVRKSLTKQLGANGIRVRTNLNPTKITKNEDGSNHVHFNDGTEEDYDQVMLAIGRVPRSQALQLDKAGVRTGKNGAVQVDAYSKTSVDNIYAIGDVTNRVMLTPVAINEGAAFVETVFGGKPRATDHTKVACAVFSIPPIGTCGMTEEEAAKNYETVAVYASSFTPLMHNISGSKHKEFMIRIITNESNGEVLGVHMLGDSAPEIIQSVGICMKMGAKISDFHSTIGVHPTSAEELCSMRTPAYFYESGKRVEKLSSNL

[2] = system: Leishmania infantum; experiment: Leishmanicidal activity against axenic amastigote stage of Leishmania infantum MCAN/ES/89/IPZ229/1/89 assessed as reduction of proliferation of amastigotes incubated for 24 hrs by propidium iodide staining based flow cytometry; type: functional, organism-based; details: MCAN/ES/89/IPZ229/1/89, 24 h
[3] = Cytotoxicity against human THP-1 cells assessed as reduction in cell proliferation incubated for 24 hrs by propidium iodide staining based flow cytometry
[4] = Selectivity index, ratio of LC50 for cytotoxicity against human THP-1 cells to EC50 of leishmanicidal activity against axenic amastigote stage of Leishmania infantum MCAN/ES/89/IPZ229/1/89
[5] = system: Leishmania infantum; experiment: Leishmanicidal activity against GFP-expressing axenic amastigote stage of Leishmania infantum MCAN/ES/89/IPZ229/1/89 infected in human THP-1 macrophage cells assessed as reduction in intracellular amastigotes incubated for 48 hrs by propidium iodide staining based flow cytometry; type: functional, organism-based; details: MCAN/ES/89/IPZ229/1/89, THP-1, 48 h
[6] = biological target: T1, Trypanothione reductase; experiment: Non competitive type inhibition of recombinant His-tagged Leishmania infantum TryR oxidoreductase activity expressed in Escherichia coli BL21 (DE3) assessed as inhibition constant using NADPH and varying concentration of TS2 as substrate by double reciprocal Lineweaver-Burk plot analysis
[7] = biological target: Trypanothione reductase (Leishmania infantum) (UniProt A4HSF7); experiment: Uncompetitive type inhibition of recombinant His-tagged Leishmania infantum TryR oxidoreductase activity expressed in Escherichia coli BL21 (DE3) assessed as inhibition constant using TS2 and varying concentration of NADPH as substrate by double reciprocal Lineweaver-Burk plot analysis
Chain of Trypanothione reductase (Leishmania infantum) (A4HSF7 as listed by the source): as the sequence (A4HSF7 whole entry) above

[8] = biological target: Trypanothione reductase (Leishmania infantum) (UniProt A4HSF7); experiment: Inhibition of recombinant His-tagged Leishmania infantum TryR expressed in Escherichia coli BL21 (DE3) assessed as TryR mediated cytochrome c reduction in presence of NADPH at 10 uM by spectrophotometric method

| Structure (SMILES) | IC50 [1] | EC50 [2] | CC50 at 24 h [3] | selectivity ratio [4] | EC50 [5] | Ki [6] | alphaKi [7] | inhibition [8] |
| --- | --- | --- | --- | --- | --- | --- | --- | --- |
| CCc1cc2c3cccn3c3cc(Cl)ccc3[n+]2nc1CC | 25.7 µM | 80 nM | 24.3 µM | 304 | 3100 nM | – | – | – |
| CCc1cc2c3ccc(Br)n3c3cc(Cl)ccc3[n+]2nc1CC | 2.98 µM | 80 nM | 6.85 µM | 85.6 | 1230 nM | 2830 nM | 1.37 µM | Active |
| CCN(CC)CCCC(C)Nc1c2ccc(Cl)cc2nc2ccc(OC)cc12 (stereo not drawn) [QUINACRINE] | 13.5 µM | – | – | – | – | – | – | – |
| CCCCCCCCCCCCCCCCOP(=O)([O-])OCC[N+](C)(C)C [MILTEFOSINE] | – | 520 nM | 7.69 µM | 14.8 | 550 nM | – | – | – |
